Results as given in ChEMBL document CHEMBL3885861, “Open TG-GATES”.

Species on record: Rattus norvegicus
Assay: Open TG-GATES - Regimen: Daily Repeat
Format: toxicity, organism-based, Sprague-Dawley
Design: regimen Daily Repeat, gender Male, age 6 weeks
Details: in vivo, po, 300 mg/kg, route gavage, dose level High; for APTT / Bas / Eos / Fbg / Hb / Ht / Lym / MCH / MCHC / MCV / Mono / Neu / PT / Plat / RBC / Ret / WBC: tissue Blood; for KIDNEY_L / KIDNEY_R / KIDNEY_TOTAL: tissue Kidney; for LIVER: tissue Liver; for A/G / ALP / ALT / AST / BUN / CRE / Ca / Cl / DBIL / GLC / IP / K / LDH / Na / PL / RALB / TBIL / TC / TG / TP / gamma-GTP: tissue Plasma

## CCOC(=O)C(C)(C)Oc1ccc(Cl)cc1 [CLOFIBRATE]
72 h, time 3 day
  TERMINAL_BW: 242 g
  APTT: 20.5 s
  Bas: 0%
  Eos: 1%
  Fbg: 199.2 mg/dL
  Hb: 13.2 g/dL
  Ht: 37.7%
  Lym: 73.8%
  MCH: 21 pg
  MCHC: 34.9%
  MCV: 60.3 fL
  Mono: 3.2%
  Neu: 21.8%
  PT: 12.3 s
  Plat: 125.3 x10_4/uL
  RBC: 625.4 x10_4/ul
  Ret: 3.9%
  WBC: 91.3 x10_2/uL
  KIDNEY_L: 1.1 g
  KIDNEY_R: 1.1 g
  KIDNEY_TOTAL: 2.2 g
  LIVER: 14.9 g
  A/G: 1.9
  ALP: 928.8 IU/L
  ALT: 42 IU/L
  AST: 70.2 IU/L
  BUN: 14.2 mg/dL
  CRE: 0.4 mg/dL
  Ca: 10.6 mg/dL
  Cl: 101.8 meq/L
  DBIL: 0.06 mg/dL
  GLC: 200.4 mg/dL
  IP: 5.9 mg/dL
  K: 3.9 meq/L
  LDH: 220.2 IU/L
  Na: 140.6 meq/L
  PL: 102.2 mg/dL
  RALB: 3.5 g/dL
  TBIL: 0.1 mg/dL
  TC: 43.6 mg/dL
  TG: 46.6 mg/dL
  TP: 5.3 g/dL
  gamma-GTP: 0.8 IU/L
[…], time 7 day
  TERMINAL_BW: 267.7 g
  APTT: 21.4 s
  Bas: 0%
  Eos: 0.6%
  Fbg: 212.8 mg/dL
  Hb: 13.3 g/dL
  Ht: 38.9%
  Lym: 81.4%
  MCH: 20.9 pg
  MCHC: 34.3%
  MCV: 61.1 fL
  Mono: 3.2%
  Neu: 14.4%
  PT: 12.3 s
  Plat: 132.7 x10_4/uL
  RBC: 639.6 x10_4/ul
  Ret: 5.1%
  WBC: 129.1 x10_2/uL
  KIDNEY_L: 1.1 g
  KIDNEY_R: 1.2 g
  KIDNEY_TOTAL: 2.3 g
  LIVER: 18 g
  A/G: 2.1
  ALP: 1006.8 IU/L
  ALT: 31.4 IU/L
  AST: 62.8 IU/L
  BUN: 17.2 mg/dL
  CRE: 0.4 mg/dL
  Ca: 10.7 mg/dL
  Cl: 102 meq/L
  DBIL: 0.058 mg/dL
  GLC: 214.2 mg/dL
  IP: 7.4 mg/dL
  K: 3.5 meq/L
  LDH: 285 IU/L
  Na: 141.2 meq/L
  PL: 92.2 mg/dL
  RALB: 4 g/dL
  TBIL: 0.1 mg/dL
  TC: 37.6 mg/dL
  TG: 44.2 mg/dL
  TP: 5.9 g/dL
  gamma-GTP: 1 IU/L
[…], time 14 day
  TERMINAL_BW: 303.4 g
  APTT: 21.9 s
  Bas: 0%
  Eos: 0.6%
  Fbg: 187.4 mg/dL
  Hb: 13.6 g/dL
  Ht: 39.6%
  Lym: 78.8%
  MCH: 19.9 pg
  MCHC: 34.4%
  MCV: 57.8 fL
  Mono: 3.4%
  Neu: 16.8%
  PT: 12.5 s
  Plat: 115.9 x10_4/uL
  RBC: 684.8 x10_4/ul
  Ret: 3.9%
  WBC: 125.1 x10_2/uL
  KIDNEY_L: 1.3 g
  KIDNEY_R: 1.3 g
  KIDNEY_TOTAL: 2.6 g
  LIVER: 19.3 g
  A/G: 2.2
  ALP: 750.6 IU/L
  ALT: 41.8 IU/L
  AST: 59.6 IU/L
  BUN: 17.6 mg/dL
  CRE: 0.4 mg/dL
  Ca: 10.5 mg/dL
  Cl: 101.4 meq/L
  DBIL: 0.062 mg/dL
  GLC: 228.2 mg/dL
  IP: 6.1 mg/dL
  K: 3.8 meq/L
  LDH: 172 IU/L
  Na: 140.4 meq/L
  PL: 113.2 mg/dL
  RALB: 4 g/dL
  TBIL: 0.1 mg/dL
  TC: 44 mg/dL
  TG: 46.4 mg/dL
  TP: 5.9 g/dL
  gamma-GTP: 0.8 IU/L
[…], time 28 day
  TERMINAL_BW: 368.7 g
  APTT: 22 s
  Bas: 0%
  Eos: 1%
  Fbg: 187.6 mg/dL
  Hb: 14.6 g/dL
  Ht: 41.5%
  Lym: 80.2%
  MCH: 19.1 pg
  MCHC: 35.1%
  MCV: 54.4 fL
  Mono: 3.4%
  Neu: 15.2%
  PT: 12.3 s
  Plat: 109.1 x10_4/uL
  RBC: 762.4 x10_4/ul
  Ret: 2%
  WBC: 121.5 x10_2/uL
  KIDNEY_L: 1.5 g
  KIDNEY_R: 1.6 g
  KIDNEY_TOTAL: 3.1 g
  LIVER: 21.8 g
  A/G: 1.9
  ALP: 787 IU/L
  ALT: 43.4 IU/L
  AST: 70.8 IU/L
  BUN: 15.4 mg/dL
  CRE: 0.4 mg/dL
  Ca: 10.2 mg/dL
  Cl: 101.8 meq/L
  DBIL: 0.068 mg/dL
  GLC: 190 mg/dL
  IP: 5.1 mg/dL
  K: 3.6 meq/L
  LDH: 208.6 IU/L
  Na: 140.4 meq/L
  PL: 120.6 mg/dL
  RALB: 4 g/dL
  TBIL: 0.1 mg/dL
  TC: 46 mg/dL
  TG: 47.6 mg/dL
  TP: 6.1 g/dL
  gamma-GTP: 0.6 IU/L
